Results as given in the supplement of paper PMC10331698.
± gives the standard deviation of the averaged measurements.

Key:
Test in all cases: level (log10 ratio to DMSO vehicle control); higher = higher biomarker level / cell amount than vehicle control
[1] = compound: FC(F)(F)C(F)(F)CNCC(F)(F)C(F)(F)F [Bis(1H,1H-perfluoropropyl)amine]; conditions: in DMSO
Protocol: (§1)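 BioMAP Diversity Plus panel of 12 human primary cell co-culture systems (3C, 4H, LPS, SAg, BT, BF4T, BE3C, CASM3C, HDF3CGF, KF3CT, MyoF, Mphg). Compounds were added 1 h before stimulation and left for 24 h (MyoF 48 h; BT 72 h for soluble read-outs or 6 d for IgG). Biomarkers were read by ELISA, cytotoxicity by SRB, PBMC viability and proliferation by Alamar Blue. Each well value was divided by the mean of 8 DMSO control wells on the same plate and log10 transformed; duplicate blinded samples were tested at 4 concentrations.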

[2] = compound: O=S(=O)(O)C(F)(F)C(F)(F)C(F)(F)C(F)(F)C(F)(F)C(F)(F)C(F)(F)C(F)(F)C(F)(F)C(F)(F)F [Sodium perfluorodecanesulfonate]; conditions: in DMSO
Protocol: as §1

[3] = compound: NC(=O)C(F)(F)C(F)(F)C(F)(F)C(F)F; conditions: in DMSO
Protocol: as §1

[4] = compound: O=S(=O)(F)C(F)(F)C(F)(F)C(F)(F)C(F)(F)C(F)(F)C(F)(F)C(F)(F)C(F)(F)F [Perfluorooctanesulfonyl fluoride]; conditions: in DMSO
Protocol: as §1

[5] = compound: FC(F)(F)C(F)(F)C(F)(F)C(F)(F)C(F)(F)C(F)(F)CC1CO1 [3-(Perfluorohexyl)-1,2-epoxypropane]; conditions: in DMSO
Protocol: as §1

Heptafluorobutyl iodide = compound: FC(F)(F)C(F)(F)C(F)(F)CI [Heptafluorobutyl iodide]; conditions: in DMSO
Protocol: as §1

[6] = compound: COC(=O)C(F)(F)C(F)(F)OC(F)(C(F)(F)F)C(F)(F)OC(F)=C(F)F [Methyl perfluoro(3-(1-ethenyloxypropan-2-yloxy)propanoate)]; conditions: in DMSO
Protocol: as §1

[7] = compound: C=C(C)C(=O)OCCC(F)(F)C(F)(F)C(F)(F)C(F)(F)C(F)(F)C(F)(F)F [6:2 Fluorotelomer methacrylate]; conditions: in DMSO
Protocol: as §1

[8] = compound: O=C(O)C=CC(F)(C(F)(F)F)C(F)(F)F [3-(Perfluoroisopropyl)-2-propenoic acid]; conditions: in DMSO
Protocol: as §1

Nonafluoropentanamide = compound: NC(=O)C(F)(F)C(F)(F)C(F)(F)C(F)(F)F [Nonafluoropentanamide]; conditions: in DMSO
Protocol: as §1

[9] = compound: O=C(O)C(F)(F)C(F)(F)C(F)(F)C(F)(F)C(F)(F)C(F)(F)C(F)(F)C(F)(F)C(F)(F)C(F)F [11-H-Perfluoroundecanoic acid]; conditions: in DMSO
Protocol: as §1

[10] = compound: NS(=O)(=O)C(F)(F)C(F)(F)C(F)(F)C(F)(F)C(F)(F)C(F)(F)F [Perfluorohexanesulfonamide]; conditions: in DMSO
Protocol: as §1

[11] = compound: C=CC(=O)OCC(F)(F)C(F)(F)C(F)(F)COC(=O)C=C [1H,1H,5H,5H-Perfluoro-1,5-pentanediol diacrylate]; conditions: 6700 nM; in DMSO
Protocol: as §1

[12] = compound: FC(F)(F)C(F)(F)C(F)(F)C(F)(F)C(F)(F)C(F)(F)C(F)(F)I [1-Iodopentadecafluoroheptane]; conditions: in DMSO
Protocol: as §1

[13] = compound: FC(F)(F)C(F)(F)C(F)(F)CC1CO1 [1H,1H-Heptafluorobutyl epoxide]; conditions: in DMSO
Protocol: as §1

[14] = compound: O=S(=O)(Cl)C(F)(F)C(F)(F)C(F)(F)C(F)(F)C(F)(F)C(F)(F)C(F)(F)C(F)(F)F [Perfluoro-1-octanesulfonyl chloride]; conditions: in DMSO
Protocol: as §1

Hexafluoroamylene glycol = compound: OCC(F)(F)C(F)(F)C(F)(F)CO [Hexafluoroamylene glycol]; conditions: in DMSO
Protocol: as §1

Octafluoroadipamide = compound: NC(=O)C(F)(F)C(F)(F)C(F)(F)C(F)(F)C(N)=O [Octafluoroadipamide]; conditions: in DMSO
Protocol: as §1

[15] = compound: O=S(=O)(O)CCC(F)(F)C(F)(F)C(F)(F)C(F)(F)C(F)(F)C(F)(F)F [6:2 Fluorotelomer sulfonic acid]; conditions: in DMSO
Protocol: as §1

Test System: SAg:CD38
- level (log10) ([1]; 6700 nM): 0.001 ± 0.017
- level (log10) ([1]; 20000 nM): -0.008 ± 0.018
- level (log10) ([1]; 60000 nM): 0.002 ± 0.014
- level (log10) ([2]; 1500 nM): -0.018 ± 0.02
- level (log10) ([2]; 4400 nM): -0.041 ± 0.03
- level (log10) ([2]; 13000 nM): 0.005 ± 0.035
- level (log10) ([2]; 40000 nM): -0.071 ± 0.028
- level (log10) ([3]; 6700 nM): -0.034 ± 0.014
- level (log10) ([3]; 20000 nM): -0.027 ± 0.02
- level (log10) ([3]; 60000 nM): -0.0295 ± 0.0064
- level (log10) ([4]; 6700 nM): -0.0015 ± 0.039
- level (log10) ([4]; 20000 nM): 0.0035 ± 0.0092
- level (log10) ([4]; 60000 nM): 0.0145 ± 0.005
- level (log10) ([5]; 6700 nM): 0.001 ± 0.014
- level (log10) ([5]; 20000 nM): 0.0035 ± 0.00071
- level (log10) ([5]; 60000 nM): -0.015 ± 0.0042
- level (log10) (Heptafluorobutyl iodide; 6700 nM): -0.0205 ± 0.021
- level (log10) (Heptafluorobutyl iodide; 20000 nM): -0.027 ± 0.016
- level (log10) (Heptafluorobutyl iodide; 60000 nM): -0.017 ± 0.031
- level (log10) ([6]; 6700 nM): -0.0175 ± 0.13
- level (log10) ([6]; 20000 nM): 0.038 ± 0.082
- level (log10) ([7]; 6700 nM): -0.0075 ± 0.011
- level (log10) ([7]; 20000 nM): 0.015 ± 0.038
- level (log10) ([7]; 60000 nM): 0.0005 ± 0.029
- level (log10) ([8]; 6700 nM): -0.0125 ± 0.026
- level (log10) ([8]; 20000 nM): 0.001 ± 0.0071
- level (log10) ([8]; 60000 nM): -0.019 ± 0.0085
- level (log10) (Nonafluoropentanamide; 6700 nM): -0.0345 ± 0.037
- level (log10) (Nonafluoropentanamide; 20000 nM): -0.0265 ± 0.04
- level (log10) (Nonafluoropentanamide; 60000 nM): -0.032 ± 0.028
- level (log10) ([9]; 6700 nM): -0.0045 ± 0.023
- level (log10) ([9]; 20000 nM): 0.004 ± 0.04
- level (log10) ([10]; 6700 nM): 0.0495 ± 0.056
- level (log10) ([10]; 20000 nM): 0.0225 ± 0.061
- level (log10) ([10]; 60000 nM): -0.141 ± 0.12
- level (log10) [11]: -0.0655 ± 0.046
- level (log10) ([12]; 6700 nM): -0.0085 ± 0.029
- level (log10) ([12]; 20000 nM): -0.005 ± 0.024
- level (log10) ([13]; 6700 nM): 0.0025 ± 0.012
- level (log10) ([13]; 20000 nM): -0.025 ± 0.0085
- level (log10) ([13]; 60000 nM): -0.0125 ± 0.03
- level (log10) ([14]; 6700 nM): -0.0105 ± 0.00071
- level (log10) ([14]; 20000 nM): -0.018 ± 0.0014
- level (log10) ([14]; 60000 nM): -0.058 ± 0.027
- level (log10) (Hexafluoroamylene glycol; 6700 nM): -0.02 ± 0.034
- level (log10) (Hexafluoroamylene glycol; 20000 nM): -0.03 ± 0.025
- level (log10) (Hexafluoroamylene glycol; 60000 nM): -0.0275 ± 0.046
- level (log10) (Octafluoroadipamide; 6700 nM): 0.0005 ± 0.00071
- level (log10) (Octafluoroadipamide; 20000 nM): 0.0005 ± 0.018
- level (log10) (Octafluoroadipamide; 60000 nM): 0.0065 ± 0.0021
- level (log10) ([15]; 6700 nM): -0.0315 ± 0.012
- level (log10) ([15]; 20000 nM): -0.022 ± 0.04
- level (log10) ([15]; 60000 nM): -0.0505 ± 0.032

Test System: BE3C:CXCL9/MIG
- level (log10) ([1]; 6700 nM): -0.0065 ± 0.0035
- level (log10) ([1]; 20000 nM): -0.0055 ± 0.00071
- level (log10) ([1]; 60000 nM): 0.005 ± 0.021
- level (log10) ([2]; 1500 nM): 0.016 ± 0.0042
- level (log10) ([2]; 4400 nM): 0.008 ± 0.0085
- level (log10) ([2]; 13000 nM): 0.014 ± 0.0085
- level (log10) ([2]; 40000 nM): 0.0005 ± 0.0092
- level (log10) ([3]; 6700 nM): 0.012 ± 0.024
- level (log10) ([3]; 20000 nM): 0.009 ± 0.0071
- level (log10) ([3]; 60000 nM): 0.006 ± 0.0085
- level (log10) ([4]; 6700 nM): 0.0035 ± 0.005
- level (log10) ([4]; 20000 nM): -0.0025 ± 0.0064
- level (log10) ([4]; 60000 nM): 0.007 ± 0.017
- level (log10) ([5]; 6700 nM): 0.0095 ± 0.018
- level (log10) ([5]; 20000 nM): 0.0185 ± 0.016
- level (log10) ([5]; 60000 nM): 0.023 ± 0.0057
- level (log10) (Heptafluorobutyl iodide; 6700 nM): -0.002 ± 0.0099
- level (log10) (Heptafluorobutyl iodide; 20000 nM): -0.002 ± 0.0014
- level (log10) (Heptafluorobutyl iodide; 60000 nM): 0.0065 ± 0.018
- level (log10) ([6]; 6700 nM): -0.0035 ± 0.0035
- level (log10) ([6]; 20000 nM): -0.019 ± 0.0099
- level (log10) ([7]; 6700 nM): 0.0055 ± 0.028
- level (log10) ([7]; 20000 nM): 0.008 ± 0.035
- level (log10) ([7]; 60000 nM): 0.015 ± 0.045
- level (log10) ([8]; 6700 nM): 0.0135 ± 0.015
- level (log10) ([8]; 20000 nM): 0.016 ± 0.017
- level (log10) ([8]; 60000 nM): 0.0235 ± 0.013
- level (log10) (Nonafluoropentanamide; 6700 nM): 0.015 ± 0.0071
- level (log10) (Nonafluoropentanamide; 20000 nM): -0.001 ± 0.014
- level (log10) (Nonafluoropentanamide; 60000 nM): 0.014
- level (log10) ([9]; 6700 nM): -0.004 ± 0.0057
- level (log10) ([9]; 20000 nM): -0.905 ± 0.047
- level (log10) ([10]; 6700 nM): -0.0025 ± 0.0064
- level (log10) ([10]; 20000 nM): -0.0005 ± 0.0078
- level (log10) ([10]; 60000 nM): -0.0065 ± 0.0078
- level (log10) [11]: 0.0095 ± 0.0021
- level (log10) ([12]; 6700 nM): -0.0035 ± 0.021
- level (log10) ([12]; 20000 nM): 0.003 ± 0.013
- level (log10) ([13]; 6700 nM): -0.0125 ± 0.0064
- level (log10) ([13]; 20000 nM): 0 ± 0.0028
- level (log10) ([13]; 60000 nM): -0.0075 ± 0.0064
- level (log10) ([14]; 6700 nM): -0.0025 ± 0.00071
- level (log10) ([14]; 20000 nM): -0.004 ± 0.0042
- level (log10) ([14]; 60000 nM): -0.724 ± 0.11
- level (log10) (Hexafluoroamylene glycol; 6700 nM): -0.003 ± 0.0085
- level (log10) (Hexafluoroamylene glycol; 20000 nM): -0.0055 ± 0.0035
- level (log10) (Hexafluoroamylene glycol; 60000 nM): 0.0025 ± 0.011
- level (log10) (Octafluoroadipamide; 6700 nM): -0.008
- level (log10) (Octafluoroadipamide; 20000 nM): -0.007 ± 0.0057
- level (log10) (Octafluoroadipamide; 60000 nM): 0.006 ± 0.0071
- level (log10) ([15]; 6700 nM): -0.005 ± 0.0014
- level (log10) ([15]; 20000 nM): -0.004 ± 0.0042
- level (log10) ([15]; 60000 nM): 0.0015 ± 0.011
